Assay results as given in ChEMBL document CHEMBL1909046, “DrugMatrix in vitro pharmacology data”.

How the values were obtained:
[1] = biological target: T1, Alpha-1D adrenergic receptor (Homo sapiens, UniProt P25100); assay type: cell membranes, HEK293, Membrane; conditions: hek293; note: in other assays of this panel Not Active means under 50% inhibition at 10 µM
T1 sequence (P25100 whole entry): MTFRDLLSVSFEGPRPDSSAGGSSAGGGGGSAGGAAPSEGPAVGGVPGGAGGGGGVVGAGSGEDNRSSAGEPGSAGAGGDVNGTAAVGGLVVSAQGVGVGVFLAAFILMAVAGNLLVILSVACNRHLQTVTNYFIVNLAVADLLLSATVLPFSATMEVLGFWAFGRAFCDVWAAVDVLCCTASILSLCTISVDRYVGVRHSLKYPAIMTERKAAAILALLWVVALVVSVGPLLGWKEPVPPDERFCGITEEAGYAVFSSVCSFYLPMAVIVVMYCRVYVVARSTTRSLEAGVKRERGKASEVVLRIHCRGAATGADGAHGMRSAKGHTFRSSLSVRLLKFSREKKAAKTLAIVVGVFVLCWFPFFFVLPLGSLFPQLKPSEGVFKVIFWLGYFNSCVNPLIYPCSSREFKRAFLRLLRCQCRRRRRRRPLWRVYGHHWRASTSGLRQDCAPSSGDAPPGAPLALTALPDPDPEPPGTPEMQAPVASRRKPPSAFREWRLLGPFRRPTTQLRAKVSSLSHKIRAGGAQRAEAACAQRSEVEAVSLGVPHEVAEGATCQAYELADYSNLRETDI

[2] = biological target: Beta-2 adrenergic receptor (Homo sapiens, UniProt P07550); assay: DRUGMATRIX: Adrenergic beta2 radioligand binding (ligand: [3H] CGP-12177); assay type: cell membranes, Membrane; conditions: cho; Not Active = under 50% inhibition at 10 µM
B2 bradykinin receptor = biological target: T2, B2 bradykinin receptor (Homo sapiens, UniProt P30411); assay type: cell membranes, Membrane; conditions: chem-1; note: in other assays of this panel Not Active means under 50% inhibition at 10 µM
T2 sequence (P30411 whole entry): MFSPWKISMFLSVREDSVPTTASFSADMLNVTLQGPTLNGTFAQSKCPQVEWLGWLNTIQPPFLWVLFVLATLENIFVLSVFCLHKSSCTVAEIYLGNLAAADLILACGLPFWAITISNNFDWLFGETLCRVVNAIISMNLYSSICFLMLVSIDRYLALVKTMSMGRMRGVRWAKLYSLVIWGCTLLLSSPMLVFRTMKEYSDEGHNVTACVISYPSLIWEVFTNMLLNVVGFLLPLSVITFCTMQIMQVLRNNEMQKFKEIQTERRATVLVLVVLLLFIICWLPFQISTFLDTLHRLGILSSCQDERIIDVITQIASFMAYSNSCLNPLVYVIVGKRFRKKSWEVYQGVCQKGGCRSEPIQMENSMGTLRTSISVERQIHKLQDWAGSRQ

[3] = biological target: Sigma non-opioid intracellular receptor 1 (Homo sapiens, UniProt Q99720); assay: DRUGMATRIX: Sigma1 radioligand binding (ligand: [3H] Haloperidol); assay type: cell membranes, Jurkat, Membrane; conditions: jurkat; Not Active = under 50% inhibition at 10 µM
Substance-P receptor = Substance-P receptor (Homo sapiens, UniProt P25103); assay type: cell membranes, CHO, Membrane; conditions: cho; note: in other assays of this panel Not Active means under 50% inhibition at 10 µM
[4] = biological target: T3, Muscarinic acetylcholine receptor M4 (Homo sapiens, UniProt P08173); assay type: cell membranes, CHO-K1, Membrane; conditions: cho-k1; note: in other assays of this panel Not Active means under 50% inhibition at 10 µM
T3 sequence (P08173 whole entry): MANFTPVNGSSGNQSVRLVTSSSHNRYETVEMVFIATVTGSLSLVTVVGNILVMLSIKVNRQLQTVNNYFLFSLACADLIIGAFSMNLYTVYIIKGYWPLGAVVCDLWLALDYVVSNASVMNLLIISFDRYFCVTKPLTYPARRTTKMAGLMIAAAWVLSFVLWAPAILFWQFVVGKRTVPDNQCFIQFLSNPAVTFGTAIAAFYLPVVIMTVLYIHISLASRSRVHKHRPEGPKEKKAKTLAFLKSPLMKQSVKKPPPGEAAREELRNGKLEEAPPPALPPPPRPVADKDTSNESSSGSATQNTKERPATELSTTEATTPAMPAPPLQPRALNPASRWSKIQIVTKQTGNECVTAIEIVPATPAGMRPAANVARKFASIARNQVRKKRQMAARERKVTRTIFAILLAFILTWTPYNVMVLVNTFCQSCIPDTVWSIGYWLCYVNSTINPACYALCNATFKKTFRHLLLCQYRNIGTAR

Chain of Sigma non-opioid intracellular receptor 1 (Q99720 whole entry): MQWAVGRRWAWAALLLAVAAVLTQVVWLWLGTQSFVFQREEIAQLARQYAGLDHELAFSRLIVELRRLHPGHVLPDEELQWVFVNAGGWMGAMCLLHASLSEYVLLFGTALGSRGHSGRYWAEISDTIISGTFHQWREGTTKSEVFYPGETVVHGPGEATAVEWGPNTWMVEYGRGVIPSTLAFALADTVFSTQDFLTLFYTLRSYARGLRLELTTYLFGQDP
Chain of Substance-P receptor (P25103 whole entry): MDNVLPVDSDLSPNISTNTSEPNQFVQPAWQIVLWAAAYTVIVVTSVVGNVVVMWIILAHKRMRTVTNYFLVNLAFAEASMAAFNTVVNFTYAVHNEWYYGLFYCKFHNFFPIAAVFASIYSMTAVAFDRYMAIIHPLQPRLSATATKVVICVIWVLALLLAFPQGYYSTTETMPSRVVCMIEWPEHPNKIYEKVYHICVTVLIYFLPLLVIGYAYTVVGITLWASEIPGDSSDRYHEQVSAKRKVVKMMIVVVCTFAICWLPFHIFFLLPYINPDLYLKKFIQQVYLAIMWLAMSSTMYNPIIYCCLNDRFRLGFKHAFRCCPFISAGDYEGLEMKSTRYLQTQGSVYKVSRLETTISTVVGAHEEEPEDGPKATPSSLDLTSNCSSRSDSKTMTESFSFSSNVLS

NS(=O)(=O)c1cc2c(cc1Cl)NC(C(Cl)Cl)NS2(=O)=O (stereo not drawn) [TRICHLORMETHIAZIDE]
Not Active: IC50 [1] | IC50 [2] | IC50 (B2 bradykinin receptor) | IC50 [3] | IC50 (Substance-P receptor) | IC50 [4]

Cc1c(C)c2c(c(C)c1O)CCC(C)(COc1ccc(CC3SC(=O)NC3=O)cc1)O2 (stereo not drawn) [TROGLITAZONE]
Not Active: IC50 [1] | IC50 [2] | IC50 (B2 bradykinin receptor) | IC50 [3] | IC50 (Substance-P receptor) | IC50 [4]

N[C@@H]1[C@H]2CN(c3nc4c(cc3F)c(=O)c(C(=O)O)cn4-c3ccc(F)cc3F)C[C@@H]12 [TROVAFLOXACIN]
Not Active: IC50 [1] | IC50 [2] | IC50 (B2 bradykinin receptor) | IC50 [3] | IC50 (Substance-P receptor) | IC50 [4]

N#CC(C#N)=Cc1ccc(O)c(O)c1 [TYRPHOSTIN 23]
Not Active: IC50 [1] | IC50 [2] | IC50 (B2 bradykinin receptor) | IC50 [3] | IC50 (Substance-P receptor) | IC50 [4]

CC[C@]1(O)C[C@H]2CN(CCc3c([nH]c4ccccc34)[C@@](C(=O)OC)(c3cc4c(cc3OC)N(C=O)[C@H]3[C@@](O)(C(=O)OC)[C@H](OC(C)=O)[C@]5(CC)C=CCN6CC[C@]43[C@@H]65)C2)C1 [VINCRISTINE]
Not Active: IC50 [1] | IC50 [2] | IC50 (B2 bradykinin receptor) | IC50 [3] | IC50 (Substance-P receptor) | IC50 [4]

CCCOc1ccccc1-c1nc2nn[nH]c2c(=O)[nH]1 [ZAPRINAST]
Not Active: IC50 [1] | IC50 [2] | IC50 (B2 bradykinin receptor) | IC50 [3] | IC50 (Substance-P receptor) | IC50 [4]

SODIUM NITROPRUSSIDE
Not Active: IC50 [1] | Ki [1] | IC50 [2] | Ki [2] | IC50 (B2 bradykinin receptor) | Ki (B2 bradykinin receptor) | IC50 [3] | Ki [3] | IC50 (Substance-P receptor) | Ki (Substance-P receptor) | IC50 [4] | Ki [4]
